Experimental findings from a melting point compilation (Tetko et al.; mined from patent text by program, amines drawn as free bases though some values may be those of a salt) are described below.

Each structure is given as a SMILES string.

Broadly, the melting point is the temperature, or range, at which the solid turns liquid. In the case of `COc1ccc(-c2nc3ccc(OC)cc3c(Br)c2Cl)cc1`, the melting point is 184 to 185 °C.

As to `COc1ccc(-c2ncc(-c3cnc(-c4ccccc4)[nH]3)cn2)cc1OC`, the melting point was 231 °C.

Molecule `Cc1cc(SC(=O)N(C)C)c(C(C)(C)C)cc1C=O` showed a melting point of 107 to 108 °C.

`CC(C)CCCC(C)C1CCC2(CC(=O)O)C3=C(CCC12C)C1(C)CCC(O)CC1CC3` (configuration not stated) came in with a melting point of 191 to 193 °C.

Regarding `COc1ccc(/C=C/C(=O)/C=C/C(=O)O)c(OC)c1`, the melting point lay within 195 to 200 °C.

Take `CCOC(=O)C1Cc2c(ccc(OC)c2OCc2ccccc2)CN1C(=O)C(c1ccccc1)c1ccccc1` (racemic): the melting point lay in the range of 111 to 113 °C.

As to `CC(C)(C)OC(=O)N[C@H]1CC[C@@H](NC(=O)OC(C)(C)C)CC1`, the melting point was found to be 144 °C.

`CC(=O)OCC1OC(n2cnc(C(N)=O)c2Br)C(OC(C)=O)C1OC(C)=O` (configuration not stated) showed a melting point of 133 to 135 °C.

The molecule `CCOc1noc2c1C(=O)CCC2` showed a melting point of 98 to 99 °C.

For the molecule `N=c1sc2cc(OC(F)(F)F)ccc2n1CCS(=O)c1ccccc1` (racemic), the melting point was determined as 210 °C.

Molecule `COc1cc(C=O)ccc1OCc1nc(-c2cccc(C#N)c2)oc1C` had a melting point of 166 to 167 °C.

`O=C(c1ccc([N+](=O)[O-])cc1)c1ccc2[nH]c(=O)cc(-c3cccc(Cl)c3)c2c1` registered a melting point of 227 °C.

As for `CCOC(C)O[C@H]1C(=O)N(C(=O)Oc2ccccc2)[C@H]1c1ccccc1` (some centres not stated), the melting point lay within 50 to 52 °C.

Consider `CC(C)[C@H](NC(=O)N(C)Cc1csc(NC(=O)OC(C)(C)C)n1)C(=O)N[C@@H](Cc1ccccc1)C[C@H](O)[C@H](Cc1ccccc1)NC(=O)OCc1cccnc1`, for which the melting point is 103 to 105 °C.

For the molecule `COc1c(N2C[C@H](CF)[C@](C)(N)C2)c(F)cc2c(=O)c(C(=O)O)cn(C3CC3)c12`, the melting point fell in the range of 226 to 229 °C.

In turn, `O=C(NCc1ccc(F)cc1)c1ccnc(N2CCN(CC3CC3)C2=O)c1` gave a melting point of 150 to 151 °C.

Consider `Cc1c(N2CCN(Cc3ccccc3)C(C)C2)c(F)cc2c(=O)c(C(=O)O)cn(C3CC3)c12` (configuration not stated), for which the melting point is 170 to 171 °C.

Turning to `COc1cccc2c1C13CCN(C(=O)C4CCC4)C(C2)C1CCC(=O)C3` (configuration not stated), the melting point fell in the range of 125 to 126 °C.

`CC(C)(C)c1ccc(CC(=O)CCC2CCCCC2)cc1NC(=O)CC1c2ccccc2Oc2ccccc21` displayed a melting point of 134 to 135 °C.

The molecule `COc1cccc(-c2nn(C)c3ccsc23)c1` registered a melting point of 99 to 101 °C.

`Cc1ccc2c(c1)c(CCNC(=O)c1ccccc1)c1n2C(=O)CCC1` returned a melting point of 171 °C.

Turning to `NS(=O)(=O)CS(=O)(=O)c1ccc(SCCO)cc1`, the melting point fell in the range of 136 to 137 °C.

The molecule `CON=C(C(C)=NN=Cc1ccccc1-n1c(OC)nn(C)c1=O)c1cccc(C(F)(F)F)c1` yielded a melting point of 157 to 161 °C.

With `CN1CCN(c2ccc([N+](=O)[O-])cn2)CC1`, the melting point was in the range of 75 to 76 °C.

`O=Cc1cn(-c2ccccc2)nc1O`: the melting point was in the range of 196 to 197 °C.

As for `CCNc1cc(N2CCN(C(=O)OC(C)(C)C)CC2)c(F)cc1[N+](=O)[O-]`, the melting point was 129 to 131 °C.

In turn, `CC(C)N(c1cccc2cc(-c3ncc(CCl)s3)[nH]c12)S(=O)(=O)c1cccs1` yielded a melting point of 184 to 185 °C.

On to `Cc1cc(Br)ccc1-n1ccc(O)n1`, for which the melting point fell in the range of 208 to 210 °C.

On to `Clc1conc1OC1CN2CCC1CC2` (configuration not stated), for which the melting point was in the range of 68 to 69 °C.

The molecule `C=CCc1cn2c(=O)c(C(=O)O)cnc2c2cc(OC)ccc12` gave a melting point of 207 to 210 °C.

Turning to `CCCCC1OC(=O)c2cc(NC(N)=O)ccc21` (configuration not stated), the melting point lay in the range of 196 to 199 °C.

In the case of `CCOC(=O)C1=C(C)S(=O)CCS1(=O)=O` (configuration not stated), the melting point fell in the range of 138 to 140 °C.

For the molecule `NCCCc1c[nH]c(-c2ccc(F)cc2)c1-c1ccncc1`, the melting point is 198 to 199 °C.

Take `CC(=O)OCC1OC(n2c(F)nc3c(N)ncnc32)C(OC(C)=O)C1OC(C)=O` (configuration not stated): the melting point is 98 to 101 °C.

As for `COc1ccc(C(=O)Nc2ccc(F)c(F)c2)cc1NCc1ccccc1`, the melting point was in the range of 176 to 178 °C.

On to `COC(=O)C1Oc2ccc(Cl)cc2C(c2ccccc2)(C(C)(C)C)O1` (configuration not stated), for which the melting point came out at 85 °C.

With `N#Cc1ccc2c(c1)CCC(c1ccccc1F)=C2CCO`, the melting point stood at 119 °C.

With `COCc1cc(NCc2ccccc2C)c2ccccc2n1`, the melting point is 194 to 195 °C.

The molecule `O=C(O)C1(c2cccs2)CC1` had a melting point of 116 to 118 °C.

`Cc1cc(-c2cc(C(F)F)n3ncc(-c4nc(-c5ccc(N)nc5)no4)c3n2)ccc1C(F)(F)F` gave a melting point of 231 °C.

On to `CC(C)Nc1c(C#N)cnn1-c1c(Cl)cc(SC(F)(F)F)cc1Cl`, for which the melting point was 130 °C.

In the case of `O=C(Nc1ccc2c(c1)CCC(CCN1CCCC1)=C2)c1ccc(-c2ccc(F)cc2)cc1`, the melting point lay within 187 to 189 °C.

Take `COCCNC(=O)c1cccc(-c2c(F)ccc3cc(Cc4cccc(C(F)(F)F)c4)sc23)c1`: the melting point was in the range of 116 to 117 °C.

As for `O=C1C(=CO)CSc2ccc(Cl)cc21`, the melting point was 103 to 104 °C.

Molecule `CN1CCN(C2(CNC(=O)c3ccc(Cl)c(Cl)c3)CCCCC2)CC1` displayed a melting point of 143 to 146 °C.

The molecule `CCOC(=O)c1cn(-c2nc(NC(C)(C)C)c(F)cc2F)c2c(Cl)c(F)c(F)c([N+](=O)[O-])c2c1=O` registered a melting point of 215 to 217 °C.

Molecule `OC[C@@H](O)CCOc1ccc(-c2nc3c4ccccc4c4ccccc4c3[nH]2)cc1` displayed a melting point of 263 to 265 °C.

`C=Cc1cccc(N2CC(CNC(=O)OC(C)(C)C)C2)n1`: the melting point was 85 to 87 °C.

As to `CC(=O)Nc1nc(CCc2ccc(N)cc2)c(C(=O)NCc2ccc([N+](=O)[O-])cc2)s1`, the melting point was 120 to 121 °C.

In turn, `CN(SC(Cl)(Cl)Cl)S(=O)(=O)C(Cl)=C(Cl)Cl` gave a melting point of 57 to 58 °C.

Regarding `CN(C(=O)c1ccccc1-c1ccc(F)cc1)C1N(C)C(c2ccc(F)cc2)=NC1(C(F)(F)F)C(F)(F)F` (configuration not stated), the melting point was in the range of 112 to 113 °C.

In the case of `CCCc1nc2c(N)nc3cccnc3c2s1`, the melting point lay within 135 to 136 °C.

Molecule `O=c1c2ccccc2[nH]n1CC#Cc1ccccc1` registered a melting point of 151 to 154 °C.

In the case of `C[C@H](Cc1cc2c(c(C(N)=O)c1)N(CCCCO)CC2)NCCOc1ccccc1OCC(F)(F)F`, the melting point is 116 to 118 °C.

`Cc1sc2cc(O)ccc2c1C1=C(c2c(C)sc3cc(O)ccc23)C(F)(F)C(F)(F)C1(F)F` showed a melting point of 236 to 237 °C.

`Cc1csc(C(=O)C2C(=O)N(C(N)=O)c3ccc(Cl)nc32)c1` (configuration not stated) yielded a melting point of 227 to 228 °C.

For `COC(=O)Nc1nc2ccccc2n1C(=O)NC(=O)C(Cl)=C(Cl)Cl`, the melting point worked out at 231 °C.

In the case of `CCOC(=O)c1onc(O)c1C`, the melting point was in the range of 133 to 134 °C.

In the case of `Cc1oc(-c2ccccc2)nc1COc1ccc(Cc2nc(CCC(=O)O)c(-c3ccccc3)o2)cc1`, the melting point was in the range of 136 to 137 °C.

The molecule `CCCC(CCC)Nc1cc(C)nc(Cl)c1N` returned a melting point of 139 to 140 °C.

In turn, `O=S(=O)(c1ccccc1)C(F)(F)C(O)c1ccccc1` (configuration not stated) returned a melting point of 77 to 79 °C.

Turning to `O=C(O)CCCc1cc2nc(Cl)ccc2n1S(=O)(=O)c1ccc2oncc2c1`, the melting point was 226 °C.

In the case of `Clc1ccc(C2=NOCCS2)s1`, the melting point fell in the range of 74 to 77 °C.

For the molecule `CC(C)(C)c1cc(CCNCc2cccc(NC(=N)c3cccs3)c2)cc(C(C)(C)C)c1O`, the melting point fell in the range of 116 to 117 °C.

On to `COc1cc(OC)c(F)c(N2Cc3cnc(SC)nc3N(C3CC3)C2=O)c1F`, for which the melting point was 173 to 176 °C.

The molecule `CN(C)C1(c2cccc(F)c2)CCC(c2[nH]c3ccccc3c2CCc2ccncc2)CC1` (configuration not stated) came in with a melting point of 301 to 314 °C.

`O=C(NCc1cccs1)c1cc2ccnc(N(Cc3ccccc3)Cc3ccccc3)c2[nH]1`: the melting point lay in the range of 152 to 154 °C.

As to `CCOc1nn(-c2ccc(C(F)(F)F)cn2)cc1CCCOc1ccc(CCC(=O)O)c(OC(C)C)c1`, the melting point was in the range of 104 to 105 °C.

Take `CC(=O)c1ccc(OCC(O)COc2ccccc2)cc1O` (configuration not stated): the melting point was in the range of 63 to 65 °C.

The molecule `CCCCCCCCCOC1C(O)C(CO)OC1n1cnc2c(N)ncnc21` (configuration not stated) came in with a melting point of 143 to 144 °C.

Molecule `CCOC(=O)C(C)Oc1cc(C(=O)O)c(O)c2ccccc12` (configuration not stated) returned a melting point of 75 °C.

Consider `COc1ccc2c(c1)C(=O)c1c-2c(N2CCNCC2)nc2ccc(F)cc12`, for which the melting point lay within 157 to 158 °C.

Molecule `CC(=O)NC[C@H]1OC(=O)N2c3ccc(C(=O)CCl)cc3C[C@H]12` had a melting point of 172 to 174 °C.

Take `CS(=O)(=O)c1ccc(-c2cnn(CC(F)(F)F)c(=O)c2Oc2ccc(-c3ccccc3)cc2)cc1`: the melting point was 163 to 165 °C.

The molecule `Cc1cc(F)ccc1NCC(=O)NCc1ccccc1` had a melting point of 75 to 76 °C.

`CC(C)(C)OC(=O)Nc1cc(OC(C)(C)C)c(-c2ccccc2F)cc1NC(=O)CC(=O)c1cccc(-n2ccnn2)c1` returned a melting point of 47 to 50 °C.

In the case of `CCCCNC(=O)Cc1ccccc1`, the melting point was 56 to 57 °C.

Molecule `CC1(CN2CCN(c3ccc(C(F)(F)F)cc3)CC2)Cn2cc([N+](=O)[O-])nc2O1` (configuration not stated) displayed a melting point of 159 to 160 °C.

`C[C@H](Nc1cc(Cl)ccc1[N+](=O)[O-])C(=O)O` showed a melting point of 167 to 169 °C.

For the molecule `O=C1Nc2ccccc2SC1CO` (configuration not stated), the melting point lay in the range of 156 to 157 °C.

In turn, `CCn1cc(OC(=O)c2ccccc2)c(=O)c2ccccc21` gave a melting point of 190 to 192 °C.

`O=C1Nc2ccccc2OCC1N1C(=O)c2ccccc2C1=O` (configuration not stated) showed a melting point of 188 to 193 °C.

Regarding `O=C1OCCN1c1ccc(NCCO)c([N+](=O)[O-])c1`, the melting point was 184 °C.

In turn, `CC(C)(C)OC(=O)COc1ccc(C(=O)NNC(=O)c2ccc(CNC(=O)OC(C)(C)C)cc2)cc1OCC(=O)OC(C)(C)C` registered a melting point of 156 to 158 °C.

In the case of `CCCC[N+]([O-])=Cc1ccc(OCc2ccccc2)c(OC)c1`, the melting point amounted to 81.2 °C.

With `O=C1CC=Cc2ncncc21`, the melting point lay in the range of 211 to 212 °C.

`c1ccc2c(N3CCN(CCc4ccc(-c5csnn5)cc4)CC3)nsc2c1` had a melting point of 257 to 259 °C.
